Measurements taken from US20240262863A1, “PEPTIDE FRAGMENT AND USE THEREOF” (TOAGOSEI CO., LTD., priority 2021, published 2024).
FAM = 5(6)-carboxyfluorescein

Test system: HeLa cells
Assay: Evaluation of cell membrane penetrating ability of FAM-labelled constructs by flow cytometry
Format: cell-based, human
Conditions: for MFI (mean fluorescent intensity): 10 μM in culture solution, 0.5% DMSO, 20 h incubation at 37° C., flow cytometer detector FL2; for MFI value compared to Example 2: 10 μM, 20 h incubation
Protocol: The cell membrane penetrating ability of samples 1 to 3 was evaluated using HeLa cells (an established cell line derived from human cervical cancer cells) as eukaryotic cells. […] In addition, “FAM” in Table 2 indicates the abovementioned fluorescent dye.
HeLa cells were cultured in DMEM (Dulbecco's modified Eagle's medium, manufactured by Fuji Film Wako Pure Chemical Industries, Cat. No. 043-30085) containing 10% FBS (fetal bovine serum), which is an ordinary culture medium.
HeLa cells adhering to the culture plate were washed with PBS, 0.25% trypsin/EDTA solution was added, and the cells were incubated for 3 min at 37° C. After incubation, the same DMEM medium including 10% FBS was added to deactivate the trypsin, and the cells were then precipitated by centrifugation for 5 min at 150×g. The supernatant produced by centrifugation was removed, and the same DMEM including 10% FBS was added to the precipitate (cell pellet) to prepare an approximately 1×10^5 cells/mL cell suspension. A total of 2 mL of the cell suspension was added to the wells of a commercial 6-hole (well) plate (AGC Techno Glass Co., Ltd) to seed the cells (at approximately 2×10^5 cells/well). Subsequent culturing for 3 h at 37° C. under conditions of 5% CO2 caused the cells to adhere to the bottom of the wells.
Next, the above 2 mM sample solution 1 was diluted with DMEM including 10% FBS to prepare a sample solution 1 in which the concentration of Sample 1 was 20 μM. A total of 1 mL of the culture supernatant was removed from the wells after the 3 h of culture, and 1 mL of the 20 μM sample solution 1 was added to the wells (that is, the concentration of Sample 1 in the culture solution in the wells was made 10 μM and the DMSO concentration was made 0.5%). The cells were then incubated for 20 h at 37° C. under conditions of 5% CO2. After such 20-h incubation, the culture supernatant was removed from the wells, and the cells in the wells were washed twice with 1 mL of PBS. A total of 200 μL of 0.25% trypsin/EDTA solution was then added to the wells, and the cells were incubated for 3 min at 37° C. After this incubation, 400 μL of the above DMEM containing 10% FBS was added to the wells to deactivate the trypsin, the cell suspension in the well was thereafter transferred to a tube, and the cells were collected. A total of 600 μL of PBS was then added to the wells to wash the wells. The PBS in the wells was then transferred to the above tube to collect the cells remaining in the wells in the tube. This tube was centrifuged for 5 min under conditions of 210×g at 4° C. After centrifugation the supernatant was removed, and the precipitate (cell pellet) was suspended (washed) in 1 mL of PBS and centrifuged under the same conditions as described above. This operation was repeated twice, and the supernatant was thereafter removed to obtain cells (a cell pellet) that had been cultured in medium including Sample 1.
The cell penetrating ability of Sample 1 was analyzed by using flow cytometry with respect to the cells (cell pellet) obtained above. An On-chip Flow cytometer (manufactured by On-chip Biotechnologies Co., Ltd.) was used as the flow cytometer.
For this analysis, the cell pellet obtained above was suspended in 50 μL of PBS. A total of 50 μL of 2× sample buffer for flow cytometry was further added to this suspension to prepare a cell suspension for analysis.
Gating was performed using the flow cytometer on the basis of forward scatter (FSC) and side scatter (SSC), a gate was set for the cell population under analysis, and fluorescent intensity was measured for the cell population within this gate. Analysis was performed so that the cell population was composed of about 10,000 cells. Fluorescent intensity was measured using the fluorescence detector FL2 (optimal detection wavelength close to 543 nm) of the flow cytometer, which can detect the fluorescent wavelength of FAM. […]

Substance | MFI (mean fluorescent intensity) | MFI value compared to Example 2
5(6)-carboxyfluorescein [Example 4, reference compound] | 14.3 | 
FAM-VVKSLVKVVKSLVK-CONH2 ({FAM}-VVKSLVKVVKSLVK-NH2) [Example 1] | 1591 | more than twice
FAM-VVRSLVKVVRSLVK-CONH2 ({FAM}-VVRSLVKVVRSLVK-NH2) [Example 2] | 715 | 
FAM-VVRSLVRVVRSLVR-CONH2 ({FAM}-VVRSLVRVVRSLVR-NH2) [Example 3] | 489 | greatly reduced
